Structures are written as SMILES. pIC50: −log10 of the molar value.

The subject of one data set is P388 tumour cells. The experiment in a line: P388 in vivo, life span extension. Details: species or system mice (F1 hybrid, DBA-2 male x C57 B1 female); key to P388 in vivo Active: Y: implies a significant value of drug activity at the stated dose; N: implies no or not statistically significant activity. As to conditions: for P388 in vivo ILS (percentage increase in life span): at optimal dose, days 1, 5 and 9, vs controls (average survival 11 days), greater than 20% statistically significant; for P388 in vivo Active: at the stated (optimal) dose. The procedure: P388 in vivo--Tumour P388 cells were obtained as frozen stocks from Mason Research Inc., U.S.A. and passaged intraperitoneally according to standard methods (Cancer Chemother. Rep. 3, Part 3, page 9, 1972) in DBA-2 mice of either sex. Groups of six Fl hybrid mice (DBA-2 male x C57 B1 female, g weight 20±1 g) were injected intraperitoneally with 10^6 cells on day 0.
O.D.--optimal drug dose, in milligrams per kilogram, administered as a solution in 0.1 ml of 30% v/v ethyl alcohol in water on days 1, 5 and 9 after tumour inoculation. The drug is administered as a soluble acid addition salt.
ILS--percentage increase in life span of treated animals over that of groups of control animals injected with tumour alone. The average survival of control mice was 11 days. Values of ILS greater than 20% are considered statistically significant.
Y. implies a significant value of drug activity at the stated dose.
N. implies no or not statistically significant activity.

Data set [1] relates to murine L1210 leukaemic cells. Description: L1210 in vitro growth inhibition. In kind it is cell-based. As to conditions: Mus musculus, drug added to cultures over 70 hours, 50% reduction of counted leukaemia cells, below 1000 nM considered significant, read-out: L1210 in vitro ID50. The procedure:
L1210 in vitro--The culture methods used are described in detail elsewhere (B. C. Baguley and R. Nash, Europ. J. Cancer, 17, 671-679 (1981)). Acceptable reproducibility of data depends critically upon the maintenance of optimal culture conditions. L1210 cells were initially obtained from Dr I. Wodinsky, Arthur D. Little Inc., Boston, U.S.A., under the auspices of the National Cancer Institute.
Values below 1000 nM are considered significant.

Data set [2] can be described thus: Reversed phase partition chromatography (lipophilic-hydrophilic balance). In kind it is physicochemical. As to conditions: linearly related to partition coefficients in 1-octanol/water, read-out: Rm. The text has this:
Rm=a measure of the compound's lipophilic-hydrophilic balance from reversed phase partition chromatography. Rm is linearly related to partition coefficients obtained in the 1-octanol/water system.

For data set [3] the following is noted: cited from earlier work.
Another data set concerns Bacillus subtilis. Description: Antibacterial activity.
For another data set, the system named is Alcaligenes viscolatis. Description: Antibacterial activity.
The test system of another data set is Escherichia coli. The experiment in a line: Antibacterial activity.
The next data set deals with Neisseria catarrhalis. The experiment in a line: Antibacterial activity.
Another data set concerns Xanthomonas phaseoli. Description: Antibacterial activity.
In a further data set the test system is Sarcina lutea. The experiment in a line: Antibacterial activity.
In a further data set the test system is Streptococcus faecalis. The experiment in a line: Antibacterial activity.
Data set [4] has as its system Micrococcus lysodeikticus. The experiment in a line: Antibacterial activity.
The next data set has as its system Staphylococcus aureus. The experiment in a line: Antibacterial activity.
For the next data set, the system named is Aerobacter aerogenes. The experiment in a line: Antibacterial activity.

For `CN(C)CCNC(=O)c1cccc2c(N)c3ccc(N)cc3nc12` [Compound 17], in the data set with P388 tumour cells, the “P388 in vivo ILS (percentage increase in life span)” value is 58% and the “P388 in vivo Active” value was “Y”. The pIC50 in data set [1] was 7.46.

Regarding `COc1cccc2c(N)c3cccc(C(=O)NCCN(C)C)c3nc12` [Compound 14], in the data set with P388 tumour cells, the “P388 in vivo ILS (percentage increase in life span)” value is recorded as 81% and the “P388 in vivo Active” value was “Y”. The pIC50 in data set [1] was 8.37. Moreover, in data set [2], the chromatographic logP is -1.06.

On to `COc1ccc2c(N)c3cccc(C(=O)NCCN(C)C)c3nc2c1` [Compound 19], for which, in the data set on P388 tumour cells, the “P388 in vivo ILS (percentage increase in life span)” value is recorded as 17% and the “P388 in vivo Active” value was “N”. The pIC50 in data set [1] is 6.82.

Take `CN(C)CCNC(=O)c1cccc2c(N)c3cccc(N)c3nc12` [Compound 12]: in the data set with P388 tumour cells, the “P388 in vivo ILS (percentage increase in life span)” value worked out at 58% and the “P388 in vivo Active” value was “Y”. The pIC50 in [1] is 7.74.

Regarding `CN(C)CCNC(=O)c1cccc2c(N)c3cc(Cl)ccc3nc12` [Compound 24], in the data set on P388 tumour cells, the “P388 in vivo ILS (percentage increase in life span)” value is given as 8% and the “P388 in vivo Active” value is recorded as “N”. Moreover, the pIC50 in [1] was 6.14.

For the compound `CN(C)CCNC(=O)c1cc([N+](=O)[O-])cc2c(N)c3ccccc3nc12` [Compound 9], in the data set with P388 tumour cells, the “P388 in vivo ILS (percentage increase in life span)” value is given as 25% and the “P388 in vivo Active” value is recorded as “Y”. The pIC50 in data set [1] was 6.50.

For the compound `NCCNC(=O)c1cccc2c(N)c3ccccc3nc12` [Compound 8], in the data set on P388 tumour cells, the “P388 in vivo ILS (percentage increase in life span)” value is 71% and the “P388 in vivo Active” value is on record as “Y”. In addition, in data set [1], the pIC50 is 6.38. Moreover, in [2], the chromatographic logP was -1.18.

`CN(C)CCNC(=O)c1cc(N)cc2c(N)c3ccccc3nc12` [Compound 10]: in the data set on P388 tumour cells, the “P388 in vivo ILS (percentage increase in life span)” value is 28% and the “P388 in vivo Active” value is listed as “Y”. The pIC50 in [1] was 6.79.

Turning to `Cc1ccc2c(N)c3cccc(C(=O)NCCN(C)C)c3nc2c1` [Compound 18], in the data set on P388 tumour cells, the “P388 in vivo ILS (percentage increase in life span)” value was 20% and the “P388 in vivo Active” value is reported as “N”. The pIC50 in data set [1] is 7.26. Also, the chromatographic logP in [2] is -0.82.

Consider `Cc1cccc2c(N)c3cccc(C(=O)NCCN(C)C)c3nc12` [Compound 13], for which, in the data set with P388 tumour cells, the “P388 in vivo ILS (percentage increase in life span)” value turned out to be 107% and the “P388 in vivo Active” value is given as “Y”. For the same compound, in data set [1], the pIC50 is 9.48. Further, the chromatographic logP in [2] is -1.02.

On to `COc1ccc2nc3c(C(=O)NCCN(C)C)cccc3c(N)c2c1` [Compound 23], for which, in the data set with P388 tumour cells, the “P388 in vivo ILS (percentage increase in life span)” value stood at 4% and the “P388 in vivo Active” value was “N”. For the same compound, in data set [1], the pIC50 is 6.29.

Regarding `Cc1c2ccccc2nc2c(C(=O)NCCN(C)C)cccc12` [Compound 2, N-(2-dimethylaminoethyl)-9-methylacridine-4-carboxamide], in the data set on P388 tumour cells, the “P388 in vivo ILS (percentage increase in life span)” value is 14% and the “P388 in vivo Active” value was “N”. The pIC50 in data set [1] was 7.18. Also, the chromatographic logP in data set [2] was -0.3.

Take `CCN(CC)CCNC(=O)c1cccc2c(N)c3ccccc3nc12` [Compound 7]: in the data set on P388 tumour cells, the “P388 in vivo ILS (percentage increase in life span)” value turned out to be 70% and the “P388 in vivo Active” value was “Y”. Further, the pIC50 in data set [1] is 8.26. Besides, in data set [2], the chromatographic logP was -0.67.

Regarding `Nc1c2ccccc2nc2c(C(=O)NCCNCCO)cccc12` [Compound 6], in the data set with P388 tumour cells, the “P388 in vivo ILS (percentage increase in life span)” value is 80% and the “P388 in vivo Active” value is “Y”. Besides, the pIC50 in [1] is 7.11. The chromatographic logP in [2] is -1.06.

Turning to `Cc1ccc2nc3c(C(=O)NCCN(C)C)cccc3c(N)c2c1` [Compound 22], in the data set on P388 tumour cells, the “P388 in vivo ILS (percentage increase in life span)” value is 0% and the “P388 in vivo Active” value is on record as “N”. Moreover, the pIC50 in data set [1] is 6.22.

Take `CNc1c2ccccc2nc2c(C(=O)NCCN(C)C)cccc12` [Compound 3]: in the data set with P388 tumour cells, the “P388 in vivo ILS (percentage increase in life span)” value worked out at 53% and the “P388 in vivo Active” value is listed as “Y”. Also, in data set [1], the pIC50 was 7.82. The chromatographic logP in data set [2] was -1.11.

Turning to `CN(C)CCNC(=O)c1cccc2c(N)c3ccc([N+](=O)[O-])cc3nc12` [Compound 16], in the data set on P388 tumour cells, the “P388 in vivo ILS (percentage increase in life span)” value amounted to 23% and the “P388 in vivo Active” value is “Y”. The pIC50 in [1] is 10.30.

For the compound `CN(C)CCNC(=O)c1cccc2c(N)c3cc(N)ccc3nc12` [Compound 21], in the data set on P388 tumour cells, the “P388 in vivo ILS (percentage increase in life span)” value turned out to be 80% and the “P388 in vivo Active” value was “Y”. Besides, the pIC50 in data set [1] was 7.32. In addition, in [2], the chromatographic logP was -1.64.

As to `CN(C)CCNC(=O)c1cccc2c(N)c3cc([N+](=O)[O-])ccc3nc12.Cl.Cl` [Compound 20, N-(2-dimethylaminoethyl)-9-amino-7-nitroacridine-4-carboxamide dihydrochloride], in the data set on P388 tumour cells, the “P388 in vivo ILS (percentage increase in life span)” value came to 34% and the “P388 in vivo Active” value is reported as “Y”. In addition, the pIC50 in [1] is 6.98. Also, the chromatographic logP in data set [2] was -1.29.

With `CCN(CC)CCCC(C)Nc1c2ccc(Cl)cc2nc2ccc(OC)cc12` (centres unmarked) [mepacrine], the “Local clinical cytostatic effects” value in [3] is “Local clinical cytostatic effects”.

On to `CN(C)CCNC(=O)c1cccc2c(N)c3ccccc3nc12` [Compound 4], for which the Antibacterial activity entry in the data set with Bacillus subtilis, in the data set with Alcaligenes viscolatis, with Escherichia coli, with Neisseria catarrhalis, in the data set on Xanthomonas phaseoli and with Sarcina lutea was “active” in each case. Further, the Antibacterial activity result (with Streptococcus faecalis; in data set [4]; with Staphylococcus aureus; in the data set with Aerobacter aerogenes) was “active” in each case. Also, the “P388 in vivo ILS (percentage increase in life span)” value in the data set with P388 tumour cells was 98%. For the same compound, the “P388 in vivo Active” value in the data set with P388 tumour cells was “Y”. Moreover, the chromatographic logP in [2] was -1.11.

Take `CN(C)CCNC(=O)c1cccc2cc3ccccc3nc12` [Compound 1]: in the data set with P388 tumour cells, the “P388 in vivo ILS (percentage increase in life span)” value is on record as 91% and the “P388 in vivo Active” value is on record as “Y”. Besides, the pIC50 in data set [1] is 6.98. Also, the chromatographic logP in [2] is -0.2.

As to `CN(C)CCCNC(=O)c1cccc2c(N)c3ccccc3nc12` [Compound 5], in the data set on P388 tumour cells, the “P388 in vivo ILS (percentage increase in life span)” value turned out to be 0% and the “P388 in vivo Active” value is listed as “N”. Further, in data set [1], the pIC50 was 6.80. For the same compound, the chromatographic logP in [2] is -0.93.

With `CN(C)CCNC(=O)c1cccc2c(N)c3cccc(Cl)c3nc12` [Compound 15], in the data set with P388 tumour cells, the “P388 in vivo ILS (percentage increase in life span)” value is 81% and the “P388 in vivo Active” value is listed as “Y”. For the same compound, the pIC50 in [1] is 8.54.

For `CN(C)CCNC(=O)c1cccc2c(N)c3cccc([N+](=O)[O-])c3nc12` [Compound 11], in the data set on P388 tumour cells, the “P388 in vivo ILS (percentage increase in life span)” value is recorded as 39% and the “P388 in vivo Active” value is recorded as “Y”. In addition, the pIC50 in data set [1] is 8.89.
